According to paper PMC8933379, “Evaluation of the absolute oral bioavailability of the anaplastic lymphoma kinase/c-ROS oncogene 1 kinase inhibitor lorlatinib in healthy participants” (Cancer Chemotherapy and Pharmacology, 2021):
In brackets after ≈: the same amount, converted by molar mass. Entries after “also recorded” stand apart in the source; their conditions may differ. Like-named read-outs stand apart in the source and are kept apart here.

Tests used:
[1] = Safety evaluation (adverse events) in the crossover study
Procedure: Safety assessments were performed at screening, during the study, and at study completion, clinic discharge, or early termination. Safety assessments included physical examinations, 12‐lead ECGs, vital signs, and clinical laboratory evaluations. All adverse events (AEs) and concomitant treatments were monitored and recorded throughout the study. AEs were reported using NCI CTCAE terminology.

[2] = parameters: method as in earlier work; conditions: cited from earlier work
[3] = parameters: method as in PMID 33937953; conditions: co-administered with modafinil; cited from earlier work
[4] = rats; animal studies, no reference given; cited from earlier work
[5] = planned IV dose formulation, rabbits; earlier toxicology studies, no reference given; cited from earlier work
[6] = Solubility in aqueous media; format: physicochemical

C[C@H]1Oc2cc(cnc2N)-c2c(nn(C)c2C#N)CN(C)C(=O)c2ccc(F)cc21 [Lorlatinib, (10R)-7-amino-12-fluoro-2,10,16-trimethyl-15-oxo-10,15,16,17-tetrahydro-2H-8,4-(metheno)pyrazolo[4,3-h][2,5,11]-benzoxadiazacyclotetradecine-3-carbonitrile]
Tolerability ([1]; 50 mg IV dose and 100 mg single oral dose, healthy participants): generally well-tolerated
Number of TEAEs (treatment-emergent adverse events) ([1]; 50 mg IV, n = 11): 8
Number of TRAEs (treatment-related adverse events) ([1]; 50 mg IV, n = 11): 6
Number of participants who reported AEs ([1]; 50 mg IV, n = 11): 4
Participants with AEs: Abdominal discomfort, all causality ([1]; 50 mg IV, n = 11): 0
Participants with AEs: Contusion, TRAE ([1]; 50 mg IV, n = 11): 0
Participants with AEs: Contusion, all causality ([1]; 50 mg IV, n = 11): 1
Participants with AEs: Dizziness, TRAE ([1]; 50 mg IV, n = 11): 1 (1)
Participants with AEs: Dizziness, all causality ([1]; 50 mg IV, n = 11): 1 (1)
Participants with AEs: Dysuria, all causality ([1]; 50 mg IV, n = 11): 0
Participants with AEs: Eye disorders, all causality ([1]; 50 mg IV, n = 11): 0
Participants with AEs: Gastrointestinal disorders, all causality ([1]; 50 mg IV, n = 11): 0
Participants with AEs: General disorders and administration side conditions, all causality ([1]; 50 mg IV, n = 11): 0
Participants with AEs: Headache, TRAE ([1]; 50 mg IV, n = 11): 2 (2)
Participants with AEs: Headache, all causality ([1]; 50 mg IV, n = 11): 2 (2)
Participants with AEs: Injury, poisoning and procedural complications, TRAE ([1]; 50 mg IV, n = 11): 0
Participants with AEs: Injury, poisoning and procedural complications, all causality ([1]; 50 mg IV, n = 11): 1
Participants with AEs: Investigations, TRAE ([1]; 50 mg IV, n = 11): 1 (1)
Participants with AEs: Investigations, all causality ([1]; 50 mg IV, n = 11): 1 (1)
Participants with AEs: Mental impairment, all causality ([1]; 50 mg IV, n = 11): 0
Participants with AEs: Nausea, all causality ([1]; 50 mg IV, n = 11): 0
Participants with AEs: Nervous system disorders, TRAE ([1]; 50 mg IV, n = 11): 2 (2)
Participants with AEs: Nervous system disorders, all causality ([1]; 50 mg IV, n = 11): 2 (2)
Participants with AEs: Nervousness, TRAE ([1]; 50 mg IV, n = 11): 0
Participants with AEs: Nervousness, all causality ([1]; 50 mg IV, n = 11): 1
Participants with AEs: Paraesthesia, TRAE ([1]; 50 mg IV, n = 11): 1 (1)
Participants with AEs: Paraesthesia, all causality ([1]; 50 mg IV, n = 11): 1 (1)
Participants with AEs: Photophobia, all causality ([1]; 50 mg IV, n = 11): 0
Participants with AEs: Psychiatric disorders, TRAE ([1]; 50 mg IV, n = 11): 0
Participants with AEs: Psychiatric disorders, all causality ([1]; 50 mg IV, n = 11): 1
Participants with AEs: Renal and urinary disorders, all causality ([1]; 50 mg IV, n = 11): 0
Participants with AEs: Somnolence, all causality ([1]; 50 mg IV, n = 11): 0
Participants with AEs: Transaminase increased, TRAE ([1]; 50 mg IV, n = 11): 1 (1)
Participants with AEs: Transaminase increased, all causality ([1]; 50 mg IV, n = 11): 1 (1)
Participants with AEs: Visual field defect, TRAE ([1]; 50 mg IV, n = 11): 1 (1)
Participants with AEs: Visual field defect, all causality ([1]; 50 mg IV, n = 11): 1 (1)
Deaths, serious AEs, severe AEs, discontinuations or dose reductions due to AEs ([1]; 100 mg oral and 50 mg IV, 11 healthy participants): No deaths, serious adverse events (AEs), or severe AEs were reported; also recorded: No deaths, serious AEs, severe AEs, permanent discontinuations, temporary discontinuations, or dose reductions due to AEs were reported
Number of TEAEs (treatment-emergent adverse events) ([1]; 100 mg oral tablets, n = 11): 12
Number of TRAEs (treatment-related adverse events) ([1]; 100 mg oral tablets, n = 11): 9
Participants with AEs: Abdominal discomfort, TRAE ([1]; 100 mg oral tablets, n = 11): 0
Participants with AEs: Abdominal discomfort, all causality ([1]; 100 mg oral tablets, n = 11): 1
Participants with AEs: Contusion, all causality ([1]; 100 mg oral tablets, n = 11): 0
Participants with AEs: Dizziness, TRAE ([1]; 100 mg oral tablets, n = 11): 1 (1)
Participants with AEs: Dizziness, all causality ([1]; 100 mg oral tablets, n = 11): 1 (1)
Participants with AEs: Dysuria, TRAE ([1]; 100 mg oral tablets, n = 11): 1 (1)
Participants with AEs: Dysuria, all causality ([1]; 100 mg oral tablets, n = 11): 1 (1)
Participants with AEs: Eye disorders, TRAE ([1]; 100 mg oral tablets, n = 11): 1 (1)
Participants with AEs: Eye disorders, all causality ([1]; 100 mg oral tablets, n = 11): 1 (1)
Participants with AEs: Gastrointestinal disorders, TRAE ([1]; 100 mg oral tablets, n = 11): 0
Participants with AEs: Gastrointestinal disorders, all causality ([1]; 100 mg oral tablets, n = 11): 2
Participants with AEs: General disorders and administration side conditions, TRAE ([1]; 100 mg oral tablets, n = 11): 0
Participants with AEs: General disorders and administration side conditions, all causality ([1]; 100 mg oral tablets, n = 11): 1
Participants with AEs: Headache, TRAE ([1]; 100 mg oral tablets, n = 11): 2 (2)
Participants with AEs: Headache, all causality ([1]; 100 mg oral tablets, n = 11): 2 (2)
Participants with AEs: Injury, poisoning and procedural complications, all causality ([1]; 100 mg oral tablets, n = 11): 0
Participants with AEs: Investigations, TRAE ([1]; 100 mg oral tablets, n = 11): 1 (1)
Participants with AEs: Investigations, all causality ([1]; 100 mg oral tablets, n = 11): 1 (1)
Participants with AEs: Mental impairment, TRAE ([1]; 100 mg oral tablets, n = 11): 1 (1)
Participants with AEs: Mental impairment, all causality ([1]; 100 mg oral tablets, n = 11): 1 (1)
Participants with AEs: Nausea, TRAE ([1]; 100 mg oral tablets, n = 11): 0
Participants with AEs: Nausea, all causality ([1]; 100 mg oral tablets, n = 11): 1
Participants with AEs: Nervous system disorders, TRAE ([1]; 100 mg oral tablets, n = 11): 3 (3)
Participants with AEs: Nervous system disorders, all causality ([1]; 100 mg oral tablets, n = 11): 3 (3)
Participants with AEs: Nervousness, all causality ([1]; 100 mg oral tablets, n = 11): 0
Participants with AEs: Paraesthesia, TRAE ([1]; 100 mg oral tablets, n = 11): 1 (1)
Participants with AEs: Paraesthesia, all causality ([1]; 100 mg oral tablets, n = 11): 1 (1)
Participants with AEs: Photophobia, TRAE ([1]; 100 mg oral tablets, n = 11): 1 (1)
Participants with AEs: Photophobia, all causality ([1]; 100 mg oral tablets, n = 11): 1 (1)
Participants with AEs: Psychiatric disorders, all causality ([1]; 100 mg oral tablets, n = 11): 0
Participants with AEs: Renal and urinary disorders, TRAE ([1]; 100 mg oral tablets, n = 11): 1 (1)
Participants with AEs: Renal and urinary disorders, all causality ([1]; 100 mg oral tablets, n = 11): 1 (1)
Participants with AEs: Somnolence, TRAE ([1]; 100 mg oral tablets, n = 11): 1 (1)
Participants with AEs: Somnolence, all causality ([1]; 100 mg oral tablets, n = 11): 1 (1)
Participants with AEs: Transaminase increased, TRAE ([1]; 100 mg oral tablets, n = 11): 1 (1)
Participants with AEs: Transaminase increased, all causality ([1]; 100 mg oral tablets, n = 11): 1 (1)
Participants with AEs: Visual field defect, all causality ([1]; 100 mg oral tablets, n = 11): 0
Number of participants who reported AEs ([1]; 100 mg oral, n = 11): 4
Oral apparent clearance (CL/F), mean (CV%) ([2]; after a 100 mg single oral dose): 11 L/h
Oral apparent clearance (CL/F), mean (CV%) ([2]; at steady-state): 18 L/h
Plasma terminal half-life (t½), mean (CV%) [2]: approximately 24 h
AUCinf reduction [3]: 23%
Absolute bioavailability [4]: approximately 100%
Local vascular tissue irritation [5]: did not indicate any local vascular tissue irritation
solubility ([6]; pH 2.55): 32.4 mg/mL (≈ 79.7 mM)
solubility ([6]; pH 8.02): 0.17 mg/mL (≈ 0.418 mM)
